One data set deals with probiotic bacteria. The data set is described as follows: Viability of probiotic bacteria with added iron source (general finding). To be noted: iron source in powder composition with probiotic bacteria, at reconstitution. In kind it is cell-based.
For data set [1] the following is noted: in human; Hurrell, Iron Fortification of Foods, 1985; cited from earlier work.
Data set [2] relates to Bifidobacterium longum (deposited as ATCC BAA-999). To be noted: 5, 25 and 50 mg Fe2+ per 100 g maltodextrin model composition, FIG. 2.
Description: The Samples were produced as follows. The maltodextrin, the dried probiotic powder and the iron source were added together in a 500 mL plastic beaker and mixed for 5 minutes at 34 rpm using a Turbula® T2F dry mixer (WAB, Switzerland). An amount of 25 g of freshly mixed sample was diluted 1/10 in an aqueous tryptone salt solution supplemented with anti-foaming agent at 37° C. After 5 minutes of homogenization using a Masticator® (IUL, Spain), decimal dilutions were performed. The appropriate dilution resulting in 30-300 colonies after incubation was then transferred to a petri dish and mixed with RCA agar according to the pour plate method. Once solidified the plates were incubated at 37° C. under anaerobic conditions. After 48 h of incubation the colonies present on the plates were counted.
For data set [3] the test system is unchanged. The conditions noted are these: FIG. 5; for loss of live Bifidobacterium longum in the reconstituted compositions: 25 and 50 mg Fe2+ per 100 g infant formula powder (Nestogen 1).
Description: The Samples were produced as follows. The infant formula powder, the dried probiotic powder and the iron source were added together in a 500 mL plastic beaker and mixed for 5 minutes at 34 rpm using a Turbula® T2F dry mixer (WAB, Switzerland). An amount of 25 g of freshly mixed sample was diluted 1/10 in an aqueous tryptone salt solution supplemented with anti-foaming agent at 37° C. After 5 minutes of homogenization using a Masticator® (IUL, Spain), decimal dilutions were performed. The appropriate dilution resulting in 30-300 colonies after incubation was then transferred to a petri dish and mixed with RCA agar according to the pour plate method. Once solidified the plates were incubated at 37° C. under anaerobic conditions. After 48 h of incubation the colonies present on the plates were counted.
Data set [4] deals with Lactobacillus rhamnosus (deposited as CGMCC 1.3724). The conditions noted are these: 10 and 30 mg Fe2+ per 100 g maltodextrin model composition, FIG. 1.
Description: (§1) The maltodextrin, the dried probiotic powder and the iron source were added together in a 500 mL plastic beaker and mixed for 5 minutes at 34 rpm using a Turbula® T2F dry mixer (WAB, Switzerland). An amount of 25 g of freshly mixed sample was diluted 1/10 in an aqueous tryptone salt solution supplemented with anti-foaming agent at 37° C. After 5 minutes of homogenization using a Masticator® (IUL, Spain), decimal dilutions were performed. The appropriate dilution resulting in 30-300 colonies after incubation was then transferred to a petri dish and mixed with MRS agar according to the pour plate method. Once solidified the plates were incubated at 37° C. under aerobic conditions. After 48 h of incubation the colonies present on the plates were counted.
Data set [5] shares this test system. To be noted: FIG. 4; for loss of live L. rhamnosus in the reconstituted compositions: 10 and 30 mg Fe2+ per 100 g infant formula powder (Nestogen 1).
Description: An amount of 25 g of freshly mixed sample was diluted 1/10 in an aqueous tryptone salt solution supplemented with anti-foaming agent at 37° C. After 5 minutes of homogenization using a Masticator® (IUL, Spain), decimal dilutions were performed. The appropriate dilution resulting in 30-300 colonies after incubation was then transferred to a petri dish and mixed with MRS agar according to the pour plate method. Once solidified the plates were incubated at 37° C. under aerobic conditions. After 48 h of incubation the colonies present on the plates were counted.
For data set [6], the system named is Lactobacillus paracasei (deposited as CNCM I-2116). In words: Survival of Lactobacillus paracasei on reconstitution, maltodextrin model composition (Example 3, plate count). In kind it is cell-based. To be noted: 5, 25 and 50 mg Fe2+ per 100 g maltodextrin model composition, FIG. 3.
Description: as §1
For data set [7] the following is noted: in rat; Hurrell, Iron Fortification of Foods, 1985; cited from earlier work.

Where two headings read alike, the source gives them in different places.

`O=C([O-])CC(O)(CC(=O)O)C(=O)[O-].[Fe+2]` [ferrous citrate]: the “loss of viability of probiotic bacteria” value with probiotic bacteria is on record as “do not significantly impair”. In addition, in data set [1], the average bioavailability is 74%.

As to `O.O.O.O.O.O.O.O=S(=O)([O-])[O-].[Fe+2]` [ferrous sulphate heptahydrate, reference compound], the “loss of live Bifidobacterium longum in the reconstituted compositions” value in data set [2] and in data set [3] was “significant loss” each time. Moreover, the “loss of live L. rhamnosus in the reconstituted compositions” value in data set [4] and in data set [5] was “significant loss” each time. Also, in the data set with probiotic bacteria, the “loss of viability of probiotic bacteria” value is listed as “significant loss”.

`O.O=S(=O)([O-])[O-].[Fe+2]` [ferrous sulphate monohydrate]: the “loss of live Bifidobacterium longum in the reconstituted compositions” value in data set [2] and in data set [3] was “no significant loss” in each case. Besides, the “loss of viable Bifidobacterium longum compared with dissolved ferrous sulphate in spray-dried form” value in data set [2] (all iron concentrations) is on record as “significantly lower”; in data set [3] (25 and 50 mg Fe2+ per 100 g infant formula composition, all iron concentrations), “significantly lower”. The “loss of live Lactobacillus paracasei in the reconstituted compositions” value in data set [6] is “no significant loss”. Moreover, the “loss of viable Lactobacillus paracasei compared with dissolved ferrous sulphate in spray-dried form” value in data set [6] (all iron concentrations) is given as “significantly lower”. For the same molecule, the “loss of live L. rhamnosus in the reconstituted compositions” value in data set [4] and in data set [5] was “no significant loss” throughout. Also, the “loss of viable Lactobacillus rhamnosus compared with dissolved ferrous sulphate in spray-dried form” value in data set [4] (both iron concentrations) was “significantly lower”; in data set [5] (10 and 30 mg Fe2+ per 100 g infant formula composition, both iron concentrations), “significantly lower”. In addition, in the data set on probiotic bacteria, the “loss of viability of probiotic bacteria” value is listed as “no significant loss”.

What is called bioavailability is dose-corrected exposure relative to a reference, in per cent. Regarding ferric citrate, the “loss of viability of probiotic bacteria” value in the data set on probiotic bacteria is given as “do not significantly impair”. The bioavailability in data set [7] was 75%. The average bioavailability in data set [1] is listed as 31%.

(Values after US11596649B2, “Composition in powder form comprising iron and probiotic bacteria” (NESTEC S.A., priority 2016, dated 2023).)
